Reference: PMC11320178 (Chemical Science, 2024)
Where no end group is shown, it is not given here.

Assays:
[1] = pH 2
[2] = Stability of the cyclic peptide against ROS environment; assay type: physicochemical; conditions: P1 ∼100 μM, ∼150 μM H2O2 in PBS pH 7.4, after 6 h, LC-MS
[3] = assay type: physicochemical; conditions: equimolar semicarbazide derivative (∼100 μM) in PBS pH 7.4, 20 min, LC-MS

**Q.** With “CIITRPC (also: sidechain bridge or staple (positions not given here)) [P1]” as the substance, how does the “Stability under a wide range of pH values (no complete dissociation of the thiazolidine ring)” value [1] read?
**A.** high stability

**Q.** And the “Stability in H2O2” value [2]?
**A.** remarkable stability

**Q.** What about the “Linearization by semicarbazide (diazaborine conjugate formation)” value [3] of the same substance?
**A.** linearized
